Measured values published in ChEMBL document CHEMBL2434845, “Design, synthesis and efficacy of novel G protein-coupled receptor kinase 2 inhibitors” (Eur J Med Chem, 2013).
The source made the active and inactive calls. No cut-off for these calls is given here. Peptide text beside a SMILES is read from it.

Tests used:
[1] = target: T1, Beta-adrenergic receptor kinase 1 (Homo sapiens) (UniProt P25098); assay: Inhibition of GRK-2 (unknown origin)-mediated phosphorylation of rhodopsin in bovine-rod outer segment membranes at 1 uM incubated under white light condition for 15 mins measured after 30 mins by autoradiography in presence of [gamma32P]-ATP; assay type: cell membranes
T1 sequence (whole entry): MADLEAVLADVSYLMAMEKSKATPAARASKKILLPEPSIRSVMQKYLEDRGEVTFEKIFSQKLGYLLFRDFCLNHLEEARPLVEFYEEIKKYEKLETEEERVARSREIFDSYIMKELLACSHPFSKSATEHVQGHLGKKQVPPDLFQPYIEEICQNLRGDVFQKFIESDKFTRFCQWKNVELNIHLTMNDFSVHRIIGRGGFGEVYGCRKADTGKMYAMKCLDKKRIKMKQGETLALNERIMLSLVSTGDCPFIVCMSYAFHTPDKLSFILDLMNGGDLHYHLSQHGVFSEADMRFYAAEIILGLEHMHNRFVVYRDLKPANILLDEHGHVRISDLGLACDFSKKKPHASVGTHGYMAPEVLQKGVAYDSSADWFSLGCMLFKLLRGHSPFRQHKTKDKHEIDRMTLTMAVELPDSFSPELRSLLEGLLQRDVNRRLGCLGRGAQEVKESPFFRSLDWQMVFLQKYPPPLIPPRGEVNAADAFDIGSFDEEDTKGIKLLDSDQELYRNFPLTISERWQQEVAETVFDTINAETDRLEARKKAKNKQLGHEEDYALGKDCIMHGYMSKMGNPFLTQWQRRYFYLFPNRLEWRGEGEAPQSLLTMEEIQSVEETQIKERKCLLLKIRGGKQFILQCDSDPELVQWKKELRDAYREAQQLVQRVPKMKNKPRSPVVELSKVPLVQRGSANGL

[2] = target: G protein-coupled receptor kinase 5 (Homo sapiens) (UniProt P34947); assay: Inhibition of GRK-5 (unknown origin)-mediated phosphorylation of rhodopsin in bovine-rod outer segment membranes incubated under white light condition for 15 mins measured after 30 mins by autoradiography in presence of [gamma32P]-ATP; assay type: cell membranes; set-up: concentration or dose not given beside the values
Chain of G protein-coupled receptor kinase 5 (Homo sapiens) (P34947 whole entry, looked up): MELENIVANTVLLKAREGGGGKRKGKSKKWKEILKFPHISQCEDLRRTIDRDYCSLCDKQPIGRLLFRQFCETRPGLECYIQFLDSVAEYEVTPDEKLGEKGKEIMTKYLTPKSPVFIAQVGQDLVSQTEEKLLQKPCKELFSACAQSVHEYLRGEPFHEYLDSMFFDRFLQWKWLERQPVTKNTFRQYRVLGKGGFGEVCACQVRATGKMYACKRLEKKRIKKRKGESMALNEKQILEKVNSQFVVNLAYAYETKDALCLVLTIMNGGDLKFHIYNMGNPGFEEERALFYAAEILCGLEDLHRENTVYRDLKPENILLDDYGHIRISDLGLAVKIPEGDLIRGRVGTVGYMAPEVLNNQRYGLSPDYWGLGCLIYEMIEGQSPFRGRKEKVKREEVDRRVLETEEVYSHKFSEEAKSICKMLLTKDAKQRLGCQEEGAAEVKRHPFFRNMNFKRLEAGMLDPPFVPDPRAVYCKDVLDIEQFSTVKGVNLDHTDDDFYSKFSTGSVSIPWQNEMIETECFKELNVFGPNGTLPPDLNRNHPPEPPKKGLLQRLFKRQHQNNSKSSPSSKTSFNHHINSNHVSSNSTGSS

[3] = target: T1, Beta-adrenergic receptor kinase 1 (Homo sapiens); assay: (§1) Inhibition of GRK-2 (unknown origin)-mediated phosphorylation of rhodopsin in bovine-rod outer segment membranes incubated under white light condition for 15 mins measured after 30 mins by autoradiography in presence of [gamma32P]-ATP; assay type: cell membranes
[4] = target: T1, Beta-adrenergic receptor kinase 1 (Homo sapiens); assay: Inhibition of GRK2 in HEK293 cells overexpressing human beta2 adrenergic receptor assessed as effect on cAMP production at 1 uM after 1 hr by enzyme immunoassay; assay type: cell-based
[5] = target: T1, Beta-adrenergic receptor kinase 1 (Homo sapiens); assay: Inhibition of GRK2 in HEK293 cells overexpressing human beta2 adrenergic receptor assessed as increase in beta2 adrenergic receptor density at 1 uM after 1 hr by gamma counting analysis in presence of [125I]cyanopindolol; assay type: cell-based
[6] = target: T1, Beta-adrenergic receptor kinase 1 (Homo sapiens); assay: Inhibition of GRK2 in HEK293 cells overexpressing human beta2 adrenergic receptor assessed as effect on isoproterenol-induced cAMP production at 1 uM preincubated for 1 hr prior to isoproterenol-stimulation measured after 15 mins by enzyme immunoassay; assay type: cell-based
[7] = target: T2, Beta-adrenergic receptor kinase 1 (Homo sapiens, UniProt P25098); assay: as §1; assay type: cell membranes
T2 sequence (P25098 whole entry): T1 sequence (whole entry)

HEK293 [8] = assay: Cellular uptake in HEK293 cells overexpressing human beta2 adrenergic receptor at 1 uM after 1 hr by confocal microscopic analysis; assay type: ADME, cell-based; conditions: hek293, 1 h
HEK293 [9] = assay: Cellular uptake in HEK293 cells overexpressing human beta2 adrenergic receptor at 1 to 10 uM after 1 hr by fluorescence assay; assay type: ADME, cell-based; conditions: hek293, 1 h

Row | inhibition [1] [%] | inhibition [2] [%] | SMILES | other results
1 | 47.8 | < 5 | CC(C)C[C@@H]1NC(=O)CNC(=O)[C@H](CO)NC(=O)[C@H](Cc2cnc[nH]2)NC(=O)[C@@H](CCCNC(=N)N)NC(=O)[C@H](CCCNC(=N)N)NC(=O)[C@H](CC(C)C)NC1=O | –
2 | 36.3 | < 5 | CC(C)C[C@@H]1NC(=O)[C@H](CCCCN)NC(=O)[C@H](CC(=O)O)NC(=O)[C@H](Cc2cnc[nH]2)NC(=O)[C@@H](CCCNC(=N)N)NC(=O)[C@H](CCCNC(=N)N)NC(=O)[C@H](CC(C)C)NC1=O | –
3 | 47.2 | < 5 | CC(C)C[C@@H]1NC(=O)[C@H](CC(C)C)NC(=O)[C@H](CCCCN)NC(=O)[C@H](CC(=O)O)NC(=O)[C@H](Cc2cnc[nH]2)NC(=O)CNC(=O)[C@H](CCCNC(=N)N)NC1=O (cyclo(DKLLRGH)) | –
4 | 49.6 | < 5 | CC[C@H](C)[C@H](NC(=O)[C@H](CO)NC(=O)[C@H](Cc1cnc[nH]1)NC(=O)[C@@H](CCCNC(=N)N)NC(=O)[C@H](CCCNC(=N)N)NC(=O)[C@H](CC(C)C)NC(=O)[C@H](CC(C)C)NC(=O)CN)C(=O)O | inhibition [3]: Dose-dependent effect; inhibition [4]: Active; inhibition [5]: Active; inhibition [6]: Active
5 | – | – | CC[C@H](C)[C@H](NC(=O)[C@H](CO)NC(=O)[C@H](Cc1cnc[nH]1)NC(=O)[C@@H](CCCN=C(N)N)NC(=O)[C@H](CCCN=C(N)N)NC(=O)[C@H](CC(C)C)NC(=O)[C@H](CC(C)C)NC(=O)CN)C(=O)O | IC50 [7]: 0.34 µM; Drug uptake (HEK293 [8]): Active; Drug uptake (HEK293 [9]): Active
6 | 37.2 | < 5 | CC[C@H](C)[C@@H]1NC(=O)[C@H](CO)NC(=O)[C@H](Cc2cnc[nH]2)NC(=O)[C@@H](CCCNC(=N)N)NC(=O)[C@H](CCCNC(=N)N)NC(=O)[C@H](CC(C)C)NC(=O)[C@H](CC(C)C)NC(=O)CNC1=O | –
7 | 47.6 | < 5 | CC(C)C[C@H](NC(=O)CN)C(=O)N[C@@H](CC(C)C)C(=O)N[C@@H](CCCNC(=N)N)C(=O)N[C@H](CCCNC(=N)N)C(=O)N[C@@H](Cc1cnc[nH]1)C(=O)N[C@@H](CO)C(=O)O | –
